Molecular target: T1, GBA2 (Homo sapiens, UniProt Q9HCG7)
T1 sequence (Q9HCG7 1-927): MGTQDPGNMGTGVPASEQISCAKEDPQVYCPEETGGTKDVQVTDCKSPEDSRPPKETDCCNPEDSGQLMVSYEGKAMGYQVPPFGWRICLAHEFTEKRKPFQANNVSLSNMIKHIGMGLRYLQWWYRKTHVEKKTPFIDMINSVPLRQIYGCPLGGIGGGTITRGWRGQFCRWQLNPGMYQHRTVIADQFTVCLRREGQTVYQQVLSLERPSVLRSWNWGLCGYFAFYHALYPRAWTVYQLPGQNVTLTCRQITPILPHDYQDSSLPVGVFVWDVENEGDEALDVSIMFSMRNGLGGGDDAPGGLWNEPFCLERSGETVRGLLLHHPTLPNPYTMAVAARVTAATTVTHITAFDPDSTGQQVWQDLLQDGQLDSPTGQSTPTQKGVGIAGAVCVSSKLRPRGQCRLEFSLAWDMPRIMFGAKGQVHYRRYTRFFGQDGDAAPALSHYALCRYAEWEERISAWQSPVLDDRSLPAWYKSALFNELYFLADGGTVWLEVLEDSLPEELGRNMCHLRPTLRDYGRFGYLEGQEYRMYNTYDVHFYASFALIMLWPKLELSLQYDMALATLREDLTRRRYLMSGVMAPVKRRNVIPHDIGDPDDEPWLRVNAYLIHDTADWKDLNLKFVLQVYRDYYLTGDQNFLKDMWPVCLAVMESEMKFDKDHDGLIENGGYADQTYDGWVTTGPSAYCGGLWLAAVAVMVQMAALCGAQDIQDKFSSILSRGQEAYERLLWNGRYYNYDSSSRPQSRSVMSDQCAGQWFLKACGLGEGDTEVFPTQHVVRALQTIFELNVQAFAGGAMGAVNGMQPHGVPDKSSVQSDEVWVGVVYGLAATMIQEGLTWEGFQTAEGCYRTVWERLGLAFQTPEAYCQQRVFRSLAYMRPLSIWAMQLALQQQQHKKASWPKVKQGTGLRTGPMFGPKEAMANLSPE
Assay: Confocal microscopy of ABP 4 staining after inhibitor pre-treatment in GBA2 overexpressing cells
Format: cell-based
Set-up: expressed in transfected cells; host or cells: HEK293T GBA1/GBA2 KO (CRISPR/Cas9), GBA2 overexpressed
Details: 16 h pre-treatment (21 100 nM, 22 500 nM), then ABP 4 50 nM 2 h; GBA2 OE HEK293T cells
Description: To confirm the specific staining of GBA2, cells overexpressing GBA2 were pre-treated with either the specific GBA1 inhibitor 21 [32] or the GBA1/GBA2 inhibitor 22.[36]
Figure S11. Confocal fluorescence microscopy of A) HEK293T wild-type (WT), GBA2 overexpression (OE) or GBA1/2 knock out (KO) + GBA2 overexpression (OE) cells. Cells were pre-treated with either DMSO, GBA1/GBA2 inhibitor 22 or GBA1 selective inhibitor 21, and afterwards incubated with β-D-Araf aziridine BODIPY-red ABP 4 (50 nM) for 2 h. Subsequently, cells were fixed and stained for GBA1 (Green) with an anti-GBA1 antibody. B) RAW264.7 cells pre-treated with either DMSO or GBA1/GBA2 inhibitor 22 and incubated β-D-Araf aziridine ABP 4 for (50 nM) for 2 h. […]
Figure S12. […] Competitive ABPP allow for the determination of apparent IC50 values by quantification of the fluorescence intensity of ABP 7 as described in experimental section. […]
2.12 Reactivity of β-D-Araf aziridines towards GBA2 orthologue in other species β-D-Araf aziridine ABP 3-5 or ABP 7 was incubated with homogenates of zebrafish (Danio rerio) larvae or mice brain for 1 h at 37 °C. […] The zebrafish homogenates were passed through a desalting column (in the same way as described for the irreversibility evaluation above) to remove interference from biological pigments when scanning at λEX 473 nm and λEM ≥ 510 nm for BODIPY green fluorescence. […]

## CCCCCN1[C@@H]2[C@H](CO)[C@@H](O)[C@H](O)[C@@H](O)[C@@H]21 (stereo partly shown) [Inhibitor 22]
  Effect of pre-treatment on ABP 4 staining of GBA2: completely abrogated

— publication PMC11375437, “Selective labelling of GBA2 in cells with fluorescent β-D-arabinofuranosyl cyclitol aziridines” (Chemical Science, 2024)
